Measurements from paper PMC9141920, “Identification and Characterization of Dipeptidyl Peptidase-IV Inhibitory Peptides from Oat Proteins” (Foods, 2022).
Read-outs that look alike come from different tables or passages of the source. Where a SMILES comes first, the peptide text is derived from it.

Assays:
human DPP-IV = biological target: T1, human DPP-IV (Homo sapiens, UniProt P27487); test: DPP-IV inhibitory activity assay with Gly-Pro-AMC as the substrate; format: biochemical; details: for IC50: peptides, Gly-Pro-AMC substrate
T1 construct: purchased Sigma-Aldrich
T1 sequence (P27487 whole entry): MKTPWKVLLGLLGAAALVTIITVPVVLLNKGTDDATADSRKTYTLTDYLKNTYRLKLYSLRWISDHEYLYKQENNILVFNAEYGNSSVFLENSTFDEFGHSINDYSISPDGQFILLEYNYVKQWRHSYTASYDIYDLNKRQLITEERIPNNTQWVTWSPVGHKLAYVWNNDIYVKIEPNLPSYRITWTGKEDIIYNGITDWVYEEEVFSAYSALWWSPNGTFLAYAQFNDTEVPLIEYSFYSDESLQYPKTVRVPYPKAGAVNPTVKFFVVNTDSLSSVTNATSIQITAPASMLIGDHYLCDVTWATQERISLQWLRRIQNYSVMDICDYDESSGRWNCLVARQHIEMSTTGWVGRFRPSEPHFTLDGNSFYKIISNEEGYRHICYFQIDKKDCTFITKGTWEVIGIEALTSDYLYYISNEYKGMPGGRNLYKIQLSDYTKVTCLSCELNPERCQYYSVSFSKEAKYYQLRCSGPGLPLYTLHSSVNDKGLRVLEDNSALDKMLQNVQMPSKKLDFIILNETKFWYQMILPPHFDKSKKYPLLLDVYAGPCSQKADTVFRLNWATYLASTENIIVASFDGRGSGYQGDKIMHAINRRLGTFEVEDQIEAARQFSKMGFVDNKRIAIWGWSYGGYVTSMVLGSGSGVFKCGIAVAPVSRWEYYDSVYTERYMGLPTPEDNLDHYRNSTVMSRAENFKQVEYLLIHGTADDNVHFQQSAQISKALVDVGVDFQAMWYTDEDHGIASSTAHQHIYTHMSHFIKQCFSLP
Method: The DPP-IV inhibitory activity assay of the sample was performed using Gly-Pro-AMC as the substrate, as previously described. Briefly, 50 µL Gly-Pro-AMC (0.2 mM) was added to a 40 µL sample (dissolved in 100 mM HEPES buffer) and incubated for 10 min at 37 °C. The reaction was initiated by adding 10 µL DPP-IV enzyme solution (10 U/L). After being incubated for 60 min at 37 °C, the reaction was terminated by adding 100 µL sodium acetate buffer (1 M, pH 4.0). The fluorescence intensity of the mixture was measured with an excitation wavelength of 350 nm and an emission wavelength of 440 nm. The control group used the HEPES buffer instead of the sample. The blank group used the HEPES buffer instead of the sample and DPP-IV enzyme solution. The DPP-IV inhibitory activity of the sample was calculated as follows:(2) DPP-IV inhibitory activity (%)=(Ac− Ab) − (As−Ab)/(Ac−Ab)×100% where As, Ac, and Ab are the intensity of the fluorescence of the sample, control, and blank groups, respectively. The half-maximal inhibitory concentration (IC50) of the sample was calculated according to the DPP-IV inhibition activity against the concentrations of the sample. In addition, the type of inhibition of the sample was obtained from the Lineweaver–Burk equation and double reciprocal plots.

DPP-IV [1] = details: cited from earlier work; for Inhibition mode on DPP-IV: similar results reported
DPP-IV [2] = tested on: DPP-IV; set-up: method as in PMID 6427168; details: Gly-Pro-pNA as the substrate; read-out: DPP-IV inhibition IC50; cited from earlier work
[3] = Ruditapes Philippinarum protein-derived peptides
[4] = camel milk protein-derived peptides
[5] = Chlorella Vulgaris protein-derived peptides
[6] = wheat-derived peptides, read-out: DPP-IV inhibition IC50

| Compound | inhibition at 25 µM (human DPP-IV) [%] | inhibition at 50 µM (human DPP-IV) [%] | inhibition at 100 µM (human DPP-IV) [%] | inhibition at 200 µM (human DPP-IV) [%] | inhibition at 400 µM (human DPP-IV) [%] | IC50 (human DPP-IV) [µM] | also measured |
| --- | --- | --- | --- | --- | --- | --- | --- |
| CC(C)[C@H](NC(=O)[C@H](C)NC(=O)[C@H](C)N)C(=O)N1CCC[C@H]1C(=O)N[C@@H](Cc1ccccc1)C(=O)O [AAVPF] (H-AAVPF-OH) | 5.42 ± 3.61 | 16.7 ± 3.38 | 28.9 ± 2.62 | 39.9 ± 2.79 | 59.8 ± 2.84 | 282 ± 27.2 |  |
| CC[C@H](C)[C@H](N)C(=O)N1CCC[C@H]1C(=O)N[C@@H](CCC(N)=O)C(=O)N[C@@H](Cc1c[nH]cn1)C(=O)N[C@@H](Cc1ccc(O)cc1)C(=O)O [IPQHY] (H-IPQHY-OH) | 49.4 ± 1.19 | 66.9 ± 1.46 | 82.67 ± 0.74 | 91 ± 1.2 | 95.84 ± 0.52 | 25.7 ± 1.06 |  |
| CC(C)C[C@H](N)C(=O)N1CCC[C@H]1C(=O)N[C@@H](CCC(N)=O)C(=O)N[C@@H](Cc1c[nH]cn1)C(=O)N[C@@H](Cc1ccc(O)cc1)C(=O)O [LPQHY] (H-LPQHY-OH) | 21.3 ± 4.86 | 37.4 ± 4.24 | 62.6 ± 1.21 | 80.4 ± 4.84 | 89.87 ± 0.41 |  |  |
| CC(C)C[C@H](N)C(=O)N1CCC[C@H]1C(=O)N[C@@H](CCC(N)=O)C(=O)N[C@@H](Cc1ccc(O)cc1)C(=O)N[C@@H](CCC(N)=O)C(=O)N[C@@H](C)C(=O)O [LPQYQA] (H-LPQYQA-OH) |  |  |  | 5.59 ± 3.1 | 29.8 ± 2.5 |  |  |
| CSCC[C@H](N)C(=O)N[C@@H](C)C(=O)NCC(=O)N[C@@H](CCC(N)=O)C(=O)N[C@H](C(=O)N[C@@H](Cc1ccccc1)C(=O)O)C(C)C [MAGQVF] (H-MAGQVF-OH) | 10.4 ± 4.35 | 13 ± 2.11 | 26.7 ± 3.49 | 49.4 ± 1.9 | 67.5 ± 2.97 | 223 ± 6.16 |  |
| O=C(N[C@@H](CS)C(=O)N1CCC[C@H]1C(=O)O)[C@H](Cc1c[nH]cn1)NC(=O)[C@@H]1CCCN1C(=O)[C@@H]1CCCN1 [PPHCP] (H-PPHCP-OH; N-terminus and C-terminus assumed) | 4.42 ± 3.95 | 29.9 ± 1.84 | 58.9 ± 1.1 | 81.35 ± 0.48 | 89.29 ± 0.45 |  |  |
| CC(C)[C@H](N)C(=O)N[C@@H](C)C(=O)N[C@@H](CCC(=O)O)C(=O)N[C@H](C(=O)N1CCC[C@H]1C(=O)N[C@@H](Cc1ccccc1)C(=O)O)C(C)C [VAEVPF] (H-VAEVPF-OH) | 33 ± 12.3 | 43.4 ± 2.27 | 58.2 ± 3.86 | 74.2 ± 2.32 | 86.2 ± 0.96 | 65.3 ± 13.1 |  |
| CC(C)[C@H](N)C(=O)N[C@@H](C)C(=O)N[C@H](C(=O)N[C@H](C(=O)N1CCC[C@H]1C(=O)N[C@@H](Cc1ccccc1)C(=O)O)C(C)C)C(C)C [VAVVPF] (H-VAVVPF-OH) | 42.9 ± 2.31 | 61.5 ± 5.19 | 66 ± 4.07 | 78.9 ± 1.23 | 87.99 ± 0.39 | 33.9 ± 4.83 |  |
| CC(C)C[C@H](NC(=O)[C@@H]1CCCN1C(=O)[C@@H](N)C(C)C)C(=O)NCC(=O)NCC(=O)N[C@@H](Cc1ccccc1)C(=O)O [VPLGGF] (H-VPLGGF-OH) | 34 ± 0.76 | 55.9 ± 1.86 | 74.4 ± 0.88 | 86.7 ± 1.1 | 92.67 ± 0.36 | 40.2 ± 0.95 |  |
| CC(C)[C@H](N)C(=O)N1CCC[C@H]1C(=O)N[C@@H](CCC(N)=O)C(=O)N[C@@H](Cc1c[nH]cn1)C(=O)N[C@@H](Cc1ccc(O)cc1)C(=O)O [VPQHY] (H-VPQHY-OH) | 40.5 ± 4.59 | 69.3 ± 4.66 | 78.8 ± 2.17 | 87.25 ± 0.25 | 94.3 ± 0.28 | 30.8 ± 1.93 |  |
| FAGDDAPR [Ruditapes Philippinarum protein-derived peptide] |  |  |  |  |  |  | Inhibition mode on DPP-IV (DPP-IV [1]; [3]): mixed-type inhibitors |
| FAGDDAPRA [Ruditapes Philippinarum protein-derived peptide] |  |  |  |  |  |  | Inhibition mode on DPP-IV (DPP-IV [1]; [3]): mixed-type inhibitors |
| FLMESH |  |  |  |  |  |  | Inhibition mode on DPP-IV (DPP-IV [1]; [3]): mixed-type inhibitors |
| ILDKVGINY [camel milk protein-derived peptide] |  |  |  |  |  |  | Inhibition mode on DPP-IV (DPP-IV [1]; [4]): mixed-type inhibitors |
| IPR |  |  |  |  |  |  | Inhibition mode on DPP-IV (DPP-IV [1]; [5]): mixed-type inhibitors |
| LQAFEPLR |  |  |  |  |  |  | IC50 (DPP-IV [1]; peptide from tryptic hydrolysate of oat globulin, read-out: DPP-IV inhibitory activity IC50): 104 µM |
| MPF |  |  |  |  |  |  | IC50 (DPP-IV [1]; [6]): ~500 µM |
| SPVVPF |  |  |  |  |  |  | Inhibition mode on DPP-IV (DPP-IV [1]; [4]): mixed-type inhibitors |
| VAVPV |  |  |  |  |  |  | IC50 (DPP-IV [1]; [6]): ~500 µM |
| VPL |  |  |  |  |  |  | IC50 (DPP-IV [2]): 16.8 µM |
| VPW |  |  |  |  |  |  | Inhibition mode on DPP-IV (DPP-IV [1]; [5]): mixed-type inhibitors |
